Laboratory results as given in PMC3050021 (Cancer cell, 2010).
“Also recorded” adds a separate entry of the source. Residues, ends and D or L forms follow the SMILES beside them. *: point of attachment. Cbz = O=C(OCc1ccccc1)*

How the values were obtained:
[1] = tested on: p53-HDMX complex (JEG-3 cells); experiment: Anti-HDMX immunoprecipitation, p53 western, JEG-3; type: cell-based, human
SJSA-1 cells = experiment: Cell viability SJSA-1; type: cell-based; conditions: 0.3–20 µM, 24 h, CellTiter-Glo; HDM2-overexpressing osteosarcoma; Figure 3A
SJSA-X cells [2] = experiment: Cell viability SJSA-X; type: cell-based; conditions: 0.3–20 µM, 24 h, CellTiter-Glo; overexpresses HDM2 and HDMX; Figure 3B
JEG-3 cells = experiment: Cell viability JEG-3; type: cell-based, human; conditions: 0.3–20 µM, 24 h, CellTiter-Glo; HDMX-overexpressing choriocarcinoma; Figure 3C
MCF-7 cells [3] = experiment: Cell viability MCF-7; type: cell-based; conditions: 0.3–20 µM, 24 h, CellTiter-Glo; HDM2- and HDMX-expressing breast cancer; Figure 3A–E
HCT116 cells = experiment: Cell viability HCT116; type: cell-based; conditions: 0.3–20 µM, 24 h, CellTiter-Glo; HDM2- and HDMX-expressing colon cancer; Figure 3A–E
[4] = tested on: HCT116 cells deficient in p53; experiment: Cell viability HCT116 deficient in p53; type: cell-based; conditions: 0.3–20 µM, 24 h, CellTiter-Glo; genetic deletion of p53; Figure 3F, 3G
A431 cells (R273H p53) = experiment: Cell viability A431; type: cell-based; conditions: 0.3–20 µM, 24 h, CellTiter-Glo; R273H p53 mutation
p53 (JEG-3 cells) = experiment: p53 western analysis, JEG-3; type: cell-based, human; conditions: 20 µM, 6 h, Figure 4A
[5] = tested on: caspase-3/7 (JEG-3 cells); experiment: Caspase-3/7 activation, JEG-3; type: cell-based, human; conditions: 0.3–10 µM, 12 h, Caspase-3/7-Glo, Figure 5B
[6] = tested on: p53-HDMX complex (MCF-7 cells); experiment: Anti-HDMX immunoprecipitation, p53 western, MCF-7; type: cell-based; conditions: Nutlin-3 20 µM alone or with 5 or 20 µM SAH-p53-8, 10 µM MG-132, 6 h, Figure 7A
SJSA-X cells [7] = experiment: Combination / synergy study, SJSA-X; type: cell-based; conditions: SJSA-X (induced HDMX expression in isogenic SJSA-1), 0.5–20 µM; Figure 7G
MCF-7 cells [8] = conditions: ref Wade et al., 2008; cited from earlier work
[9] = tested on: osteosarcoma murine xenograft; conditions: ref Vassilev et al., 2004; cited from earlier work
HDM2 = conditions: ref Vassilev et al., 2004; cited from earlier work
[10] = ref Vassilev et al., 2004; cited from earlier work
p53 (MCF-7 cells) = experiment: p53 western analysis, MCF-7; conditions: Nutlin-3 20 µM, 10 µM MG-132, 6 h, Figure 7A
[11] = tested on: WS1 normal human fibroblasts; experiment: Cell viability WS1 normal fibroblasts; conditions: 0.3–20 µM, 24 h, CellTiter-Glo; Figure 3I

| Structure (SMILES) | p53-HDMX complex in the presence of MG-132 ([1]; 0–20 µM SAH-p53-8 with 10 µM MG-132, 6 h, Figure 4B) | cell viability SJSA-1 (SJSA-1 cells) | cell viability SJSA-X (SJSA-X cells [2]) | cell viability JEG-3 (JEG-3 cells) | cell viability MCF-7 (MCF-7 cells [3]) | cell viability HCT116 (HCT116 cells) | cell viability HCT116 deficient in p53 [4] | cell viability A431 (A431 cells (R273H p53)) | p53 levels (p53 (JEG-3 cells)) | p53-HDMX complex ([1]; 20 µM, 6 h, anti-HDMX IP, Figure 4A) | caspase-3/7 activation [5] | p53-HDMX complex [6] | single-agent effect in synergy study (SJSA-X cells [7]) | sensitivity of MCF-7 to Nutlin-3 (MCF-7 cells [8]) | anti-tumor efficacy [9] | inhibition of HDM2 (HDM2) | cell cycle arrest and apoptosis [10] | p53 levels (p53 (MCF-7 cells)) | viability of normal human fibroblasts WS1 [11] |
| --- | --- | --- | --- | --- | --- | --- | --- | --- | --- | --- | --- | --- | --- | --- | --- | --- | --- | --- | --- |
| CC(C)C[C@@H](C=O)NC(=O)[C@H](CC(C)C)NC(=O)[C@H](CC(C)C)NC(=O)OCc1ccccc1 [MG-132] (Cbz-Leu-Leu-Leu-aldehyde) | increased p53-HDMX complex | – | – | – | – | – | – | – | – | – | – | – | – | – | – | – | – | – | – |
| COc1ccc(C2=N[C@@H](c3ccc(Cl)cc3)[C@@H](c3ccc(Cl)cc3)N2C(=O)N2CCNC(=O)C2)c(OC(C)C)c1 [Nutlin-3] | – | very sensitive; also recorded: more cytotoxic than SAH-p53-8 in SJSA-1 cells | little to no response | little to no response; also recorded: most resistant to Nutlin-3 | modestly sensitive | modestly sensitive | completely insensitive | similarly unaffected | an increase in p53 levels was observed | p53-HDMX complexes were preserved, if not increased | little effect | appearance of the inhibitory p53-HDMX complex | ineffective as a single agent | only modestly sensitive | exhibits anti-tumor efficacy | inhibits HDM2 | triggers cell cycle arrest and apoptosis | can elevate p53 levels in MCF-7 cells | no impact on the viability of normal human fibroblasts |
